Laboratory results from US4605744A, “Imidazole derivatives” (Hoffmann-La Roche Inc., priority 1985, dated 1986).
Values joined by “and” are separate entries in the source; they are usually repeats but may differ in a detail not shown here. Identical values can stand only once. Counter-ions that a name gives are not always drawn. Like-named read-outs stand apart in the source and are kept apart here.

Experiments:
Assay type in all cases: cell-based
E. coli 257 = experiment: In vitro antibacterial activity (MIC, Mueller-Hinton broth); conditions: Escherichia coli, 257
Summary of the method: (§1)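 Overnight cultures, diluted 10^-2, were added at 1.5 μl per well to twofold drug series (128–0.008 μg/ml) in Mueller-Hinton broth.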

P. mirabilis 190 = experiment: In vitro antibacterial activity (MIC)
Summary of the method: as §1

S. marcescens S4 = experiment: In vitro antibacterial activity (MIC)
Summary of the method: as §1

P. aeruginosa POW 151 = experiment: In vitro antibacterial activity (MIC); conditions: Pseudomonas aeruginosa, POW151
Summary of the method: as §1

P. mirabilis 90 = experiment: In vitro antibacterial activity (MIC)
Summary of the method: as §1

P. aeruginosa 5712 = experiment: In vitro antibacterial activity (MIC); conditions: Pseudomonas aeruginosa
Summary of the method: as §1

S. marcescens S714 = experiment: In vitro antibacterial activity (MIC); conditions: Serratia marcescens, S714, S. marcescens S714; read-out: MIC
Summary of the method: as §1

P. aeruginosa 8780 = experiment: In vitro antibacterial activity (MIC); conditions: Pseudomonas aeruginosa
Summary of the method: as §1

E. aerogenes 503-478 = experiment: In vitro antibacterial activity (MIC); conditions: Klebsiella aerogenes, 503478, E. aerogenes 503-478; read-out: MIC
Summary of the method: as §1

P. vulgaris 101 = experiment: In vitro antibacterial activity (MIC); conditions: Proteus vulgaris, 101, P. vulgaris 101; read-out: MIC
Summary of the method: as §1

K. pneumoniae 8357 = experiment: In vitro antibacterial activity (MIC)
Summary of the method: as §1

S. schottmuelleri = experiment: In vitro antibacterial activity (MIC); conditions: read-out: MIC
Summary of the method: as §1

K. pneumoniae 5096 = experiment: In vitro antibacterial activity (MIC)
Summary of the method: as §1

K. pneumoniae HE7 = experiment: In vitro antibacterial activity (MIC); conditions: Klebsiella pneumoniae
Summary of the method: as §1

K. pneumoniae 503-994 = experiment: In vitro antibacterial activity (MIC); conditions: Klebsiella pneumoniae, 503994, K. pneumoniae 503-994; read-out: MIC
Summary of the method: as §1

E. aerogenes 8 = experiment: In vitro antibacterial activity (MIC)
Summary of the method: as §1

S. marcescens S3 = experiment: In vitro antibacterial activity (MIC); conditions: Serratia marcescens
Summary of the method: as §1

S. marcescens SM = experiment: In vitro antibacterial activity (MIC); conditions: Serratia marcescens
Summary of the method: as §1

S. pneumoniae SC = experiment: In vitro antibacterial activity (MIC)
Summary of the method: as §1

E. aerogenes 83 = experiment: In vitro antibacterial activity (MIC)
Summary of the method: as §1

K. pneumoniae 4964 = experiment: In vitro antibacterial activity (MIC); conditions: Klebsiella pneumoniae, 4964, K. pneumoniae 4964; read-out: MIC
Summary of the method: as §1

P. rettgeri ATCC 9250 = experiment: In vitro antibacterial activity (MIC); conditions: Providencia rettgeri
Summary of the method: as §1

P. aeruginosa 503-820 = experiment: In vitro antibacterial activity (MIC)
Summary of the method: as §1

S. aureus Smith = experiment: In vitro antibacterial activity (MIC)
Summary of the method: as §1

E. cloacae 24 = experiment: In vitro antibacterial activity (MIC)
Summary of the method: as §1

S. pyogenes 4 = experiment: In vitro antibacterial activity (MIC)
Summary of the method: as §1

P. vulgaris 100 = experiment: In vitro antibacterial activity (MIC); conditions: Proteus vulgaris; P. vulgaris 100; read-out: MIC
Summary of the method: as §1

S. aureus Giorgio = experiment: In vitro antibacterial activity (MIC); conditions: Staphylococcus aureus
Summary of the method: as §1

C. freundii 8ASM = experiment: In vitro antibacterial activity (MIC); conditions: Citrobacter freundii, 8ASM, C. freundii 8ASM; read-out: MIC
Summary of the method: as §1

S. marcescens S147 = experiment: In vitro antibacterial activity (MIC); conditions: Serratia marcescens
Summary of the method: as §1

S. marcescens S5 = experiment: In vitro antibacterial activity (MIC)
Summary of the method: as §1

K. pneumoniae A = experiment: In vitro antibacterial activity (MIC); conditions: Klebsiella pneumoniae, K. pneumoniae A; read-out: MIC
Summary of the method: as §1

E. cloacae 5699 = experiment: In vitro antibacterial activity (MIC); conditions: Enterobacter cloacae, 5699, E. cloacae 5699; read-out: MIC
Summary of the method: as §1

S. aureus 1059B = experiment: In vitro antibacterial activity (MIC); conditions: Staphylococcus aureus
Summary of the method: as §1

P. aeruginosa 6148B = experiment: In vitro antibacterial activity (MIC)
Summary of the method: as §1

S. marcescens S2 = experiment: In vitro antibacterial activity (MIC); conditions: Serratia marcescens
Summary of the method: as §1

P. mirabilis 503-1136 = experiment: In vitro antibacterial activity (MIC); conditions: Proteus mirabilis, 5031136, P. mirabilis 503-1136; read-out: MIC
Summary of the method: as §1

E. cloacae 9570A = experiment: In vitro antibacterial activity (MIC); conditions: Enterobacter cloacae
Summary of the method: as §1

P. mirabilis 2 = experiment: In vitro antibacterial activity (MIC)
Summary of the method: as §1

P. vulgaris ATCC 6380 = experiment: In vitro antibacterial activity (MIC); conditions: Proteus vulgaris
Summary of the method: as §1

P. mirabilis 620A = experiment: In vitro antibacterial activity (MIC); conditions: Proteus mirabilis, 620A, P. mirabilis 620A; read-out: MIC
Summary of the method: as §1

E. cloacae 214 = experiment: In vitro antibacterial activity (MIC)
Summary of the method: as §1

E. cloacae P99 = experiment: In vitro antibacterial activity (MIC); conditions: Enterobacter cloacae, P99, E. cloacae P99
Summary of the method: as §1

S. marcescens 5805 = experiment: In vitro antibacterial activity (MIC); conditions: Serratia marcescens, 5805, S. marcescens 5805; read-out: MIC
Summary of the method: as §1

E. cloacae 9295 = experiment: In vitro antibacterial activity (MIC)
Summary of the method: as §1

[1] = Proteus mirabilis, 190, P. mirabilis 190, read-out: MIC
[2] = Serratia marcescens, S4, S. marcescens S4, read-out: MIC
[3] = Proteus mirabilis, 90, P. mirabilis 90, read-out: MIC
[4] = P. aeruginosa 5712, read-out: MIC
[5] = P. aeruginosa 8780, read-out: MIC
[6] = Klebsiella pneumoniae, K. pneumoniae 5096, read-out: MIC
[7] = K. pneumoniae HE7, read-out: MIC
[8] = Klebsiella aerogenes, E. aerogenes 8, read-out: MIC
[9] = S. marcescens S3, read-out: MIC
[10] = Streptococcus pneumoniae, read-out: MIC
[11] = Klebsiella aerogenes, 83, E. aerogenes 83, read-out: MIC
[12] = ATCC9250, P. rettgeri ATCC 9250, read-out: MIC
[13] = Pseudomonas aeruginosa, 503820, P. aeruginosa 503-820, read-out: MIC
[14] = Staphylococcus aureus, S. aureus Smith, read-out: MIC
[15] = Enterobacter cloacae, 24, E. cloacae 24, read-out: MIC
[16] = Streptococcus pyogenes, 4, S. pyogenes 4, read-out: MIC
[17] = S. aureus Giorgio, read-out: MIC
[18] = S. marcescens S147, read-out: MIC
[19] = Serratia marcescens, S5, S. marcescens S5, read-out: MIC
[20] = Pseudomonas aeruginosa, read-out: MIC
[21] = S. marcescens S2, read-out: MIC
[22] = Proteus mirabilis, 2, P. mirabilis 2, read-out: MIC
[23] = Enterobacter cloacae, 9295, E. cloacae 9295, read-out: MIC

Measured: MIC

CC1(C)S[C@@H]2[C@H](N=CN3CCC(Cn4ccnc4)CC3)C(=O)N2[C@H]1C(=O)O [Compound A]
32 µg/mL: E. aerogenes 8; [8] | S. aureus 1059B; read-out: MIC
0.062 µg/mL: E. aerogenes 503-478 | C. freundii 8ASM
8 µg/mL: S. aureus Smith; [14] | P. vulgaris 100 | S. aureus Giorgio; [17] | P. mirabilis 503-1136
16 µg/mL: P. vulgaris 101 | P. mirabilis 620A
0.125 µg/mL: E. coli 257 | S. schottmuelleri | P. vulgaris ATCC 6380; ATCC6380 | E. cloacae 214; Enterobacter cloacae, 214
1 µg/mL: S. marcescens S4; [2] | P. mirabilis 90; [3] | S. marcescens S714 | S. pyogenes 4; [16] | S. marcescens 5805
0.25 µg/mL: P. mirabilis 190; [1] | K. pneumoniae 8357; Klebsiella pneumoniae, 8357, K. pneumoniae 8357, read-out: MIC | K. pneumoniae 503-994 | S. marcescens S3; [9] | S. marcescens SM; read-out: MIC | S. marcescens S147; [18] | S. marcescens S2; [21] | E. cloacae P99
64 µg/mL: K. pneumoniae 5096; [6]
0.5 µg/mL: P. rettgeri ATCC 9250; [12] | E. cloacae 24; [15] | E. cloacae 5699 | E. cloacae 9570A; read-out: MIC | P. mirabilis 2; [22] | E. cloacae 9295; [23]
2 µg/mL: S. pneumoniae SC; [10] | E. aerogenes 83; [11] | K. pneumoniae 4964 | S. marcescens S5; [19]
< 0.008 µg/mL: K. pneumoniae A
> 128 µg/mL: P. aeruginosa POW 151 | P. aeruginosa 5712; [4] | P. aeruginosa 8780; [5] | K. pneumoniae HE7; [7] | P. aeruginosa 503-820; [13] | P. aeruginosa 6148B; [20]

CC1(C)S[C@@H]2[C@H](N=CN3CCC(CCCn4ccnc4[N+](=O)[O-])CC3)C(=O)N2[C@H]1C(=O)O [K, [2S-(2alpha,5alpha,6beta)]-6-[[[4-[3-(2-nitro-1H-imidazol-1-yl)propyl]piperidinyl]methylene]amino]-3,3-dimethyl-7-oxo-4-thia-1-azabicyclo[3.2.0]heptane-2-carboxylic acid hydrochloride 0.66 molar hydrate]
64 µg/mL: K. pneumoniae HE7; [7]
2 µg/mL: K. pneumoniae 8357; Klebsiella pneumoniae, 8357 | S. marcescens SM; read-out: MIC | P. rettgeri ATCC 9250; [12] | S. marcescens S147; [18] | S. marcescens S2; [21]
4 µg/mL: E. aerogenes 503-478 | S. marcescens S3; [9] | P. mirabilis 2; [22]
1 µg/mL: S. pneumoniae SC; [10] | E. cloacae 24; [15] | E. cloacae 5699 | E. cloacae 9570A; 9570A | E. cloacae 9295; [23]
16 µg/mL: P. vulgaris 101 | K. pneumoniae 5096; [6] | P. vulgaris 100 | P. mirabilis 620A
8 µg/mL: S. marcescens S4; [2] | P. mirabilis 90; [3] | S. marcescens S714 | E. aerogenes 8; [8] | E. aerogenes 83; [11] | S. aureus Smith; [14] | S. aureus Giorgio; [17] | S. marcescens S5; [19] | P. mirabilis 503-1136 | S. marcescens 5805
0.25 µg/mL: K. pneumoniae 503-994 | C. freundii 8ASM | K. pneumoniae A
0.5 µg/mL: E. coli 257 | P. mirabilis 190; [1] | S. schottmuelleri | K. pneumoniae 4964 | S. pyogenes 4; [16] | P. vulgaris ATCC 6380; ATCC6380, P. vulgaris ATCC 6380, read-out: MIC | E. cloacae 214; Enterobacter cloacae, 214, E. cloacae 214, read-out: MIC | E. cloacae P99
> 128 µg/mL: P. aeruginosa POW 151 | P. aeruginosa 5712; [4] | P. aeruginosa 8780; [5] | P. aeruginosa 503-820; [13] | P. aeruginosa 6148B; [20]
128 µg/mL: S. aureus 1059B; read-out: MIC

CC1(C)S[C@@H]2[C@H](/N=C/N3CCCCCC3)C(=O)N2[C@H]1C(=O)O [Amdinocillin, amdinocillin, reference compound]
0.062 µg/mL: S. marcescens S3; [9] | S. marcescens SM; read-out: MIC | S. marcescens S147; [18] | E. cloacae 9570A; read-out: MIC
16 µg/mL: S. aureus Smith; Staphylococcus aureus
> 128 µg/mL: P. aeruginosa POW 151 | P. aeruginosa 5712; 5712 | P. aeruginosa 8780; 8780 | K. pneumoniae HE7; HE7, K. pneumoniae HE7 | P. aeruginosa 503-820; Pseudomonas aeruginosa, 503820, P. aeruginosa 503-820 | P. aeruginosa 6148B; Pseudomonas aeruginosa, 6148B
1 µg/mL: S. marcescens S4; [2] | S. pneumoniae SC | S. pyogenes 4; [16] | S. marcescens S5; [19]
128 µg/mL: K. pneumoniae 5096; Klebsiella pneumoniae, 5096, K. pneumoniae 5096 | E. aerogenes 8; Klebsiella aerogenes, 8, E. aerogenes 8 | P. aeruginosa 503-820; P. aeruginosa 503-820 | S. aureus 1059B; 1059B | P. aeruginosa 6148B
32 µg/mL: K. pneumoniae 5096; [6] | S. aureus Giorgio
8 µg/mL and 16 µg/mL: S. aureus Smith; S. aureus Smith
2 µg/mL: S. pneumoniae SC; [10] | S. pyogenes 4; S. pyogenes 4
8 µg/mL: E. aerogenes 83; [11]
0.25 µg/mL: P. mirabilis 90; [3] | E. aerogenes 8; [8] | S. marcescens S2; [21]
4 µg/mL: E. aerogenes 83; E. aerogenes 83
64 µg/mL: K. pneumoniae HE7; [7] | P. aeruginosa 503-820; [13] | S. aureus 1059B; read-out: MIC | P. aeruginosa 6148B; [20]
0.125 µg/mL: E. coli 257 | P. mirabilis 190; Proteus mirabilis, 190 | S. marcescens S3; S3, S. marcescens S3 | S. marcescens SM | P. rettgeri ATCC 9250; ATCC9250 | E. cloacae 24; Enterobacter cloacae, 24 | S. marcescens S147; S147, S. marcescens S147 | S. marcescens S2; S2, S. marcescens S2 | E. cloacae 9570A; 9570A | P. mirabilis 2; Proteus mirabilis, 2 | E. cloacae 214; Enterobacter cloacae, 214 | E. cloacae 9295; Enterobacter cloacae, 9295
0.5 µg/mL: S. marcescens S4; S. marcescens S4 | P. mirabilis 90; P. mirabilis 90 | S. marcescens S5; S. marcescens S5
